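Five concentrations, 48 hours, 96-well plates. Here, GI50 denotes the concentration required for 50% inhibition of growth.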 The source made the active and inactive calls. Rule as the data show it: active = GI50 up to about 1.1 µM and inactive = higher.
Columns and labels:
Assay in all cases: DTP human tumour cell line panel, 48 h
A549 = system: A549
HL-60 = system: HL-60
PC-3 = system: PC-3
NCI-H23 = system: NCI-H23
HOP-62 = system: HOP-62
OVCAR-4 = system: OVCAR-4
CAKI-1 = system: CAKI-1
COLO 205 = system: COLO 205
SK-MEL-28 = system: SK-MEL-28
SF-295 = system: SF-295
M14 = system: M14
MCF7 = system: MCF7
NCI/ADR-RES = system: NCI/ADR-RES
SF-268 = system: SF-268
SR = system: SR
SK-OV-3 = system: SK-OV-3
K562 = system: K562
ACHN = system: ACHN
T47D = system: T47D
U-251 = system: U-251
RXF 393 = system: RXF 393
LOX IMVI = system: LOX IMVI
KM12 = system: KM12
SW-620 = system: SW-620
DU-145 = system: DU-145
IGROV-1 = system: IGROV-1
TK-10 = system: TK-10
UACC-257 = system: UACC-257
EKVX = system: EKVX
MDA-N = system: MDA-N
HCT-116 = system: HCT-116
Hs-578T = system: Hs-578T
NCI-H226 = system: NCI-H226
MOLT-4 = system: MOLT-4
NCI-H460 = system: NCI-H460
HCT-15 = system: HCT-15
A498 = system: A498
SF-539 = system: SF-539
RPMI-8226 = system: RPMI-8226
Malme-3M = system: Malme-3M
HT-29 = system: HT-29
UO-31 = system: UO-31
MDA-MB-231 = system: MDA-MB-231
OVCAR-3 = system: OVCAR-3
BT-549 = system: BT-549
OVCAR-5 = system: OVCAR-5
786-0 = system: 786-0
SK-MEL-5 = system: SK-MEL-5
UACC-62 = system: UACC-62
SNB-19 = system: SNB-19
SN12C = system: SN12C
SK-MEL-2 = system: SK-MEL-2
NCI-H522 = system: NCI-H522
HOP-92 = system: HOP-92
OVCAR-8 = system: OVCAR-8

NC(C(=O)O)C(N)C(=O)O (stereo not given)
GI50 (A549): > 100 µM (inactive) | GI50 (HL-60): > 100 µM (inactive) | GI50 (PC-3): > 100 µM (inactive) | GI50 (NCI-H23): > 100 µM (inactive) | GI50 (HOP-62): > 100 µM (inactive) | GI50 (OVCAR-4): > 100 µM (inactive) | GI50 (CAKI-1): > 100 µM (inactive) | GI50 (COLO 205): > 100 µM (inactive) | GI50 (SK-MEL-28): > 100 µM (inactive) | GI50 (SF-295): > 100 µM (inactive) | GI50 (M14): > 100 µM (inactive) | GI50 (MCF7): > 100 µM (inactive) | GI50 (NCI/ADR-RES): > 100 µM (inactive) | GI50 (SF-268): > 100 µM (inactive) | GI50 (SR): > 100 µM (inactive) | GI50 (SK-OV-3): > 100 µM (inactive) | GI50 (K562): > 100 µM (inactive) | GI50 (ACHN): > 100 µM (inactive) | GI50 (T47D): > 100 µM (inactive) | GI50 (U-251): > 100 µM (inactive) | GI50 (RXF 393): > 100 µM (inactive) | GI50 (LOX IMVI): > 100 µM (inactive) | GI50 (KM12): > 100 µM (inactive) | GI50 (SW-620): > 100 µM (inactive) | GI50 (DU-145): > 100 µM (inactive) | GI50 (IGROV-1): > 100 µM (inactive) | GI50 (TK-10): > 100 µM (inactive) | GI50 (UACC-257): > 100 µM (inactive) | GI50 (EKVX): > 100 µM (inactive) | GI50 (MDA-N): > 100 µM (inactive) | GI50 (HCT-116): > 100 µM (inactive) | GI50 (Hs-578T): > 100 µM (inactive) | GI50 (NCI-H226): > 100 µM (inactive) | GI50 (MOLT-4): > 100 µM (inactive) | GI50 (NCI-H460): > 100 µM (inactive) | GI50 (HCT-15): > 100 µM | GI50 (A498): > 100 µM (inactive) | GI50 (SF-539): > 100 µM (inactive) | GI50 (RPMI-8226): > 100 µM (inactive) | GI50 (Malme-3M): > 100 µM (inactive) | GI50 (HT-29): > 100 µM (inactive) | GI50 (UO-31): > 100 µM (inactive) | GI50 (MDA-MB-231): > 100 µM (inactive) | GI50 (OVCAR-3): > 100 µM (inactive) | GI50 (BT-549): > 100 µM (inactive) | GI50 (OVCAR-5): > 100 µM (inactive) | GI50 (786-0): > 100 µM (inactive) | GI50 (SK-MEL-5): > 100 µM (inactive) | GI50 (UACC-62): > 100 µM (inactive) | GI50 (SNB-19): > 100 µM (inactive) | GI50 (SN12C): > 100 µM (inactive) | GI50 (SK-MEL-2): > 100 µM (inactive) | GI50 (NCI-H522): > 100 µM (inactive) | GI50 (HOP-92): > 100 µM (inactive) | GI50 (OVCAR-8): > 100 µM (inactive)

— ChEMBL document CHEMBL1201862, “PubChem BioAssay data set” (2004)
